Read-outs that look alike come from different tables or passages of the source. Values belong to the molecule of their own block, whether it stands above or below them.
Experiments:
hMSH2/MSH3 [1] = molecular target: T1, hMSH2/MSH3 (Homo sapiens, UniProt P20585+P43246); test: fluorescence anisotropy competition, displacement of pre-bound BD-ADP; format: binding
hMSH2/MSH6 [2] = molecular target: T2, hMSH2/MSH6 (Homo sapiens, UniProt P43246+P52701); test: UV cross-linking of [alpha-32P]-ADP, SDS-PAGE; format: binding
T2 sequence (P43246 2-934): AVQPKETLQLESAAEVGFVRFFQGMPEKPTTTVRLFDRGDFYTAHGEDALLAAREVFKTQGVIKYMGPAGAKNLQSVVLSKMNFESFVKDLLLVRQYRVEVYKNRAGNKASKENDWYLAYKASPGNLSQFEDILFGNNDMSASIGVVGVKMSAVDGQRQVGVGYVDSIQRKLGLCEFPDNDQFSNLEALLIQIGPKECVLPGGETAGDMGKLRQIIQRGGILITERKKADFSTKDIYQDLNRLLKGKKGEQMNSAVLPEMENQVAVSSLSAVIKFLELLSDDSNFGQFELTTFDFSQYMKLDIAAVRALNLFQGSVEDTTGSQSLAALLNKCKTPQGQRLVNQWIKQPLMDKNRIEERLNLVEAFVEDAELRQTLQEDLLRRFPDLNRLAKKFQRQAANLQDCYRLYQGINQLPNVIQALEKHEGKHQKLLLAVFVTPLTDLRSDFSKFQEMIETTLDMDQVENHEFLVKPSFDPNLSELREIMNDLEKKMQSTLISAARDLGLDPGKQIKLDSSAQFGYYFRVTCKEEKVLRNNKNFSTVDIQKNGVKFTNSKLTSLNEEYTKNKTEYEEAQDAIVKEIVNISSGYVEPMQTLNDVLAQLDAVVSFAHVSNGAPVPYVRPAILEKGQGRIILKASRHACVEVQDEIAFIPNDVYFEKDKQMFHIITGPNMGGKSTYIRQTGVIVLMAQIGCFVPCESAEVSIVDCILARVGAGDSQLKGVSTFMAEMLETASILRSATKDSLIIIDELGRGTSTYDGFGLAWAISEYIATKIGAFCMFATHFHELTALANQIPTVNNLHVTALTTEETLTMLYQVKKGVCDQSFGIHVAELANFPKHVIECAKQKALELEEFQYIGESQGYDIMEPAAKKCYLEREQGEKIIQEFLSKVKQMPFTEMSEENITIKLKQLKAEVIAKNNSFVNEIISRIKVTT
T2 sequence (P52701 whole entry): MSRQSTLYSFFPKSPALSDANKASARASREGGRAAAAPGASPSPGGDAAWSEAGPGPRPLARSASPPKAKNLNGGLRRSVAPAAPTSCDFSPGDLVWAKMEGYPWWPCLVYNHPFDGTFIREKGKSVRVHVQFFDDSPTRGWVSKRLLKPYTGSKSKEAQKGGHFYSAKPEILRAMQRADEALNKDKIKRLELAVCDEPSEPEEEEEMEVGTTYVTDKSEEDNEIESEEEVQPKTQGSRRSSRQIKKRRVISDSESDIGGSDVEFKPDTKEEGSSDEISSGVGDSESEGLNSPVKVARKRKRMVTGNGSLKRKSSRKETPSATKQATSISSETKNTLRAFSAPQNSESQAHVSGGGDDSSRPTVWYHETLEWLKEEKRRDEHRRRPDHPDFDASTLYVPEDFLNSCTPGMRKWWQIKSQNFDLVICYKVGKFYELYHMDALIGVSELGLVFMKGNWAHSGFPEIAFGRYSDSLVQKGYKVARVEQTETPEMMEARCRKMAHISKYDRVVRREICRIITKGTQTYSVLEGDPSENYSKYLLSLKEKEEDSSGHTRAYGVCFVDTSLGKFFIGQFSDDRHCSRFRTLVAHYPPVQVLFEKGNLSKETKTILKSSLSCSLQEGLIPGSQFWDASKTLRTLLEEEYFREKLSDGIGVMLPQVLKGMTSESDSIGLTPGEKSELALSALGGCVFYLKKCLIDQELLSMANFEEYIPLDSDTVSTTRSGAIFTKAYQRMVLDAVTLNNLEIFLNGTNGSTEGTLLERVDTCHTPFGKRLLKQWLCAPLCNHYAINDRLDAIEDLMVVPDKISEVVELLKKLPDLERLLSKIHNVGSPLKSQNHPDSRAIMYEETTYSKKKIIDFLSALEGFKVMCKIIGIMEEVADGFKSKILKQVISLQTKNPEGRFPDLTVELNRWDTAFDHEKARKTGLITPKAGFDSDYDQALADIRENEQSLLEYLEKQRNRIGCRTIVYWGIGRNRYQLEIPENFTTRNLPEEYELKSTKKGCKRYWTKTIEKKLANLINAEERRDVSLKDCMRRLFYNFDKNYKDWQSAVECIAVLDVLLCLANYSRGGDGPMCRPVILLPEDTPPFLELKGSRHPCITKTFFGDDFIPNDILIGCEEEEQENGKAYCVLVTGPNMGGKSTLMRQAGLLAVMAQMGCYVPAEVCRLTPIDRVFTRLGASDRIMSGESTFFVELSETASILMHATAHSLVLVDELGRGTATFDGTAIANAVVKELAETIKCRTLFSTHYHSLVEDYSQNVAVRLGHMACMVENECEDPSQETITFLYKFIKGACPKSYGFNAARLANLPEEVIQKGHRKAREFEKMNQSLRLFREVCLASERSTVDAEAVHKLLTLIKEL

hMSH2/MSH3 [3] = molecular target: T1, hMSH2/MSH3; test: UV cross-linking of [alpha-32P]-ADP, SDS-PAGE; format: binding; conditions: 5 mM Mg2+; pH 8.1; no DNA; either hMSH2 or hMSH3 subunit
hMSH2/MSH6 [4] = molecular target: T2, hMSH2/MSH6; test: fluorescence anisotropy, equilibrium binding; conditions: no DNA, labelled compound
hMSH2/MSH3 [5] = molecular target: T1, hMSH2/MSH3; test: UV cross-linking of [alpha-32P]-AMP-PNP, SDS-PAGE; format: binding; conditions: +Mg2+; no DNA

T1 sequence (P43246 2-934): as the sequence (P43246 2-934) above
T1 sequence (P20585 whole entry): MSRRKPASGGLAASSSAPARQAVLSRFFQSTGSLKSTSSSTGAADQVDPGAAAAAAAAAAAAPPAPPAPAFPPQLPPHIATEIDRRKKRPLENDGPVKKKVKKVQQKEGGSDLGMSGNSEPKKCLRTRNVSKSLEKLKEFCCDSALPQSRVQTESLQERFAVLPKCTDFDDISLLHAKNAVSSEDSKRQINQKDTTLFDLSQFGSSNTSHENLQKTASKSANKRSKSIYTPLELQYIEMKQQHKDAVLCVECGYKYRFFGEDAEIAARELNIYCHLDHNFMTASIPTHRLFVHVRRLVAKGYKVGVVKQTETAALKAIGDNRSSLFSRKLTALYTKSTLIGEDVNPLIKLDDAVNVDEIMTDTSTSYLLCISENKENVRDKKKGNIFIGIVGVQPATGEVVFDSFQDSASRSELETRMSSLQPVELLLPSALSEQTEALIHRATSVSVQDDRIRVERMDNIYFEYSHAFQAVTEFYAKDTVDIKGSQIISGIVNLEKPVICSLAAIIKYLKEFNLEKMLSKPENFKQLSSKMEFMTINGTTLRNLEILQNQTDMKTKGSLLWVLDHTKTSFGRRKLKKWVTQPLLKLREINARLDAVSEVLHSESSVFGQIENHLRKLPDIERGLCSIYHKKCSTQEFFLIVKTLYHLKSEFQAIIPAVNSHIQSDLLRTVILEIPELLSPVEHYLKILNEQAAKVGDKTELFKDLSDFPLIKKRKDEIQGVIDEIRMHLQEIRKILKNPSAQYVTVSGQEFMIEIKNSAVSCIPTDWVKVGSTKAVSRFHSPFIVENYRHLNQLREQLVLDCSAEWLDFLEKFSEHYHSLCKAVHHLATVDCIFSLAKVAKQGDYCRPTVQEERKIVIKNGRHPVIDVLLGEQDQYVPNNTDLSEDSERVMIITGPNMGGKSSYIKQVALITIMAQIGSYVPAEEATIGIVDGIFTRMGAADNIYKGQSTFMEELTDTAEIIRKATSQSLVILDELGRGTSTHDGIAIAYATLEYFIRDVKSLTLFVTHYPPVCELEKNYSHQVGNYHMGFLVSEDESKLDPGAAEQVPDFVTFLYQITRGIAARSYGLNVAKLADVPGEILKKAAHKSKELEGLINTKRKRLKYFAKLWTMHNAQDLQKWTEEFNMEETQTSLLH

Kd (hMSH2/MSH6 [2]): 0.65 µM
Molecule: Nc1ncnc2c1ncn2[C@@H]1O[C@H](COP(=O)(O)OP(=O)(O)O)[C@@H](O)[C@H]1O [ADP]
Ki (hMSH2/MSH3 [1]; +Mg2+, no DNA, competitive, hMSH3 subunit): compare KD and Ki for ADP in Supplemental Fig. 1a,c
KD (hMSH2/MSH3 [3]): both subunits bound either nucleotide with high affinity, as quantified by the gel scans

Kd (hMSH2/MSH6 [4]; read-out: binding affinity, +Mg2+): 0.23 µM
Molecule: BD-AMP-PNP

Kd (hMSH2/MSH6 [4]; no Mg2+ (non-hydrolyzing)): 0.39 µM
Molecule: BD-ATP

Ki (hMSH2/MSH3 [1]): 11.3 µM
Molecule: Nc1ncnc2c1ncn2[C@@H]1O[C@H](COP(=O)(O)OP(=O)(O)NP(=O)(O)O)[C@@H](O)[C@H]1O [AMP-PNP]
KD (hMSH2/MSH3 [5]): Results for x-linking with AMP-PNP displayed the same trend

— paper PMC2982795 (Nature structural & molecular biology, 2009)
